Measured values as given in article PMC10144058, “New Hybrid Scaffolds Based on 5-FU/Curcumin: Synthesis, Cytotoxic, Antiproliferative and Pro-Apoptotic Effect” (Pharmaceutics, 2023).
Like-named read-outs stand apart in the source and are kept apart here.

Legend:
SW480 cells [1] = experiment: Cell viability, sulforhodamine B (SRB) assay; type: cell-based; details: Homo sapiens
Experimental: (§1) SW480 (colon adenocarcinoma) and SW620 (derived metastatic) malignant cell lines, and the non-malignant lines HaCaT (human keratinocytes) and CHO-K1 (Chinese Hamster Ovary), were obtained from the European Collection of Authenticated Cell Cultures (ECACC, Porton Down, Salisbury, UK). The cells were maintained in Dulbecco’s Modified Eagle’s Medium (DMEM), supplemented with 10% equine serum previously inactivated at 56 °C, 1% penicillin/streptomycin, and 1% non-essential amino acids, and incubated at 37 °C in an atmosphere with 5% CO2. To carry out the experiments, the serum was diluted to 3% and additionally supplemented with […] insulin, […] transferrin, and 5 ng/mL selenium. Cells were used for experimentation when they reached 80–90% confluence, using a 1X trypsin enzymatic disintegration method. To avoid contamination by Mycoplasma spp., cell cultures were periodically analyzed by polymerase chain reaction (PCR).
(§2) Cell viability was evaluated with a sulforhodamine B (SRB) assay. This technique provides an index of protein contents in living and adherent cells, whose optical density can be related to cell concentration. Initially, 20,000 cells were seeded per well in 96-well culture plates. An initial adherence period of 24 h was performed at 37 °C, 5% CO2, and after this, the medium was replaced by another that contained the hybrid compounds in different concentrations. Then, the cells were left incubating for 24 and 48 h under the same conditions previously described. After the respective incubation times, the cells were fixed with trichloroacetic acid (50% v/v) for 1 h at 4 °C and stained with 0.4% (p/v) of SRB. Subsequently, washings with 1% acetic acid were carried out to eliminate possible nonspecific bindings, and after solubilization with 10 mM Tris-base, the absorbance was read at 492 nm in a microplate reader (Mindray MR-96A). All the experiments were carried out in triplicate.

CHO-K1 cells = experiment: Cell viability, sulforhodamine B (SRB) assay, non-malignant cells; type: cell-based, Chinese Hamster; details: Cricetulus griseus
Experimental: as §1, §2

HaCaT cells = experiment: Cell viability, sulforhodamine B (SRB) assay, non-malignant cells; type: cell-based; details: Homo sapiens
Experimental: as §1, §2

SW620 cells [2] = experiment: Cell viability, sulforhodamine B (SRB) assay; type: cell-based, human; details: Homo sapiens
Experimental: as §1, §2

[3] = tested on: HCEC non-malignant epithelial cells; parameters: method as in PMID 31097715; details: HCEC non-malignant corneal epithelial cells; cited from earlier work
HCT116 cells = tested on: HCT116 cells; parameters: method as in PMID 31097715; details: cited from earlier work
SW480 cells [4] = experiment: Cell cycle analysis (PI, flow cytometry); type: cell-based, human; details: SW480, treated with IC50 value, 48 h
Experimental: The method used for the recognition of cell cycle phases (G0/G1, S, G2/M) was based on staining with a fluorescent dye (propidium iodide—PI), as a direct relationship between fluorescence intensity and DNA content can be established. For this method, 250,000 cells/well were initially seeded in 6-well culture plates with an adherence period of 24 h at 37 °C in a 5% CO2 atmosphere. […] After treatment, cells were obtained by mechanical disaggregation, and the cell pellet was centrifuged and washed with a versene buffer. The cell pellet was fixed with 1.8 mL of cold 70% ethanol and kept at 4 °C overnight. Subsequently, two washes with a versene buffer were performed, and the pellet was resuspended in 300 µL of PBS containing 0.25 mg/mL of RNAsa and 0.1 mg/mL of PI. After a 30 min period of dark incubation, the fluorescence of 10,000 cells was analyzed using a FACS Canto II flow cytometer. The PI signal was analyzed with excitation at 488 nm using a sapphire laser, and fluorescence was detected at 610 nm. The data analysis was performed with FlowJo 10.8.1 software.

SW480 cells [5] = experiment: Antiproliferative activity (SRB, 0-8 days); type: cell-based; details: Homo sapiens, read-out: Cell Viability (%) ± SE; for viability at 2.5 µM: SW480, 2.5 µM; for viability at 40 µM: SW480, 40 µM
Experimental: For this experiment, the same colorimetric method (SRB) from the evaluation of cell viability was used, although with some modifications. Initially, 2500 cells per well were seeded in 96-well culture plates, and a 24 h adherence period was performed at 37 °C in a 5% CO2 atmosphere. […] For this assay, incubation periods of 0, 2, 4, 6, and 8 days were used, and the fixation, staining, and reading conditions were the same as those previously described for the cytotoxicity assay.

SW480 cells [6] = experiment: Mitochondrial membrane potential (DiOC6/PI, flow cytometry); type: cell-based, human; details: SW480, treated with IC50, 48 h
Experimental: The fluorescent dyes PI and DIOC6 (3,3’-dihexyloxacarbocyanine iodide) were used to observe the depolarization of the mitochondrial membrane as well as possible cell membrane damage. For this method, 250,000 cells/well were initially seeded in 6-well culture plates during a 24 h adherence period at 37 °C in a 5% CO2 atmosphere. […] After treatment, cells were obtained by mechanical disaggregation, stained with DiOC6 and PI, and incubated at room temperature for 30 min in the dark. Ten thousand events were analyzed by flow cytometry with excitation at 488 nm and emission detection with green (530/15 nm) and red (610/20 nm) filters.

[7] = tested on: caspase 3, caspase 7, caspase 8 and p53 in SW480 cells; experiment: Apoptotic biomarkers (ELISA); type: cell-based, human; details: SW480, treated with IC50, 48 h, vs control
Experimental: To provide an approach to the possible molecular mechanisms through which the hybrid compounds induce an effect on the cell lines, different proteins related to the process of death by apoptosis were determined. For this method, 1,000,000 cells were initially seeded per Petri dish, with an adherence period of 24 h at 37 °C in a 5% CO2 atmosphere. […] Later, the consumed medium was discarded, and after the addition of the versene buffer, the cells were obtained by mechanical disaggregation. The cells were then lysed with a cell lysis buffer and centrifuged to obtain the supernatant, which was used to determine the biomarkers of interest by enzyme-linked immunosorbent assays. These ELISA kits were provided by Elabscience Biotechnology Co., Houston, TX, USA [26].

SW620 cells [8] = tested on: SW620 cells; parameters: method as in PMID 36297411; details: cited from earlier work
K562 cell line = tested on: K562 cell line; parameters: method as in PMID 33213229; details: cited from earlier work
U937 cell line = tested on: U937 cell line; parameters: method as in PMID 33213229; details: cited from earlier work
HL-60 cell line = tested on: HL-60 cell line; parameters: method as in PMID 33213229; details: cited from earlier work

Compound	IC50 (SW480 cells [1]; SW480, 24 h) [µM]	IC50 (SW480 cells [1]; SW480, 48 h) [µM]	IC50 (CHO-K1 cells; CHO-K1, 24 h) [µM]	IC50 (CHO-K1 cells; CHO-K1, 48 h) [µM]	melting point [°C]	IC50 (HaCaT cells; 24 h) [µM]	IC50 (HaCaT cells; 48 h) [µM]	IC50 (SW620 cells [2]; SW-620, 24 h, 24 h) [µM]	IC50 (SW620 cells [2]; SW-620, 48 h, 48 h) [µM]	other results
COc1cc(/C=C/C(=O)c2ccc(OCCCCn3cc(Cn4cc(F)c(=O)[nH]c4=O)nn3)cc2)ccc1O [Compound 6c, (E)-5-fluoro-1-((1-(4-(4-(3-(4-hydroxy-3-methoxyphenyl)acryloyl)phenoxy)butyl)-1H-1,2,3-triazol-4-yl)methyl)pyrimidine-2,4(1H,3H)-dione]	30.4 ± 2.69	16.4 ± 0.97	26.3 ± 2.99	30.5 ± 2.18	61 to 65	45.4 ± 4.18	19.1 ± 1.68	83.9 ± 8.08	28.1 ± 1.85	–
COc1cc(/C=C/C(=O)c2ccc(OCCCCCCCCn3cc(Cn4cc(F)c(=O)[nH]c4=O)nn3)cc2)ccc1O [Compound 6f, (E)-5-fluoro-1-((1-(8-(4-(3-(4-hydroxy-3-methoxyphenyl)acryloyl)phenoxy)octyl)-1H-1,2,3-triazol-4-yl)methyl)pyrimidine-2,4(1H,3H)-dione]	> 100	29.7 ± 2.43	> 100	> 100	98 to 102	> 100	35.1 ± 4.74	> 100	> 100	–
COc1cc(/C=C/C(=O)c2ccc(OCCCn3cc(Cn4cc(F)c(=O)[nH]c4=O)nn3)cc2)ccc1O [Compound 6b, (E)-5-fluoro-1-((1-(3-(4-(3-(4-hydroxy-3-methoxyphenyl)acryloyl)phenoxy)propyl)-1H-1,2,3-triazol-4-yl)methyl)pyrimidine-2,4(1H,3H)-dione]	48.4 ± 2.82	17.1 ± 0.8	51.3 ± 2.86	46.5 ± 1.34	124 to 129	58.1 ± 3.3	18.4 ± 1.1	90.2 ± 9.33	33.7 ± 1.03	–
COc1cc(/C=C/C(=O)c2ccc(OCCCCCCCCCn3cc(Cn4cc(F)c(=O)[nH]c4=O)nn3)cc2)ccc1O [Compound 6g, (E)-5-fluoro-1-((1-(9-(4-(3-(4-hydroxy-3-methoxyphenyl)acryloyl)phenoxy)nonyl)-1H-1,2,3-triazol-4-yl)methyl)pyrimidine-2,4(1H,3H)-dione]	> 100	> 100	> 100	> 100	113 to 120	> 100	> 100	> 100	> 100	–
CC1=C(CCC(=O)OCn2cc(F)c(=O)[nH]c2=O)C(=O)C(C(C)C)=CC1=O [C]	–	–	–	–	–	–	–	–	–	IC50 [3]: 52 µM; IC50 (HCT116 cells): 16 µM
COc1cc(/C=C/C(=O)c2ccc(OCCn3cc(Cn4cc(F)c(=O)[nH]c4=O)nn3)cc2)ccc1O [Compound 6a, (E)-5-fluoro-1-((1-(2-(4-(3-(4-hydroxy-3-methoxyphenyl)acryloyl)phenoxy)ethyl)-1H-1,2,3-triazol-4-yl)methyl)pyrimidine-2,4(1H,3H)-dione]	75.3 ± 4.65	17.4 ± 1.16	82.8 ± 6.43	73.7 ± 1.07	–	71.8 ± 4.22	27.9 ± 2.53	> 100	45.1 ± 0.98	Cell cycle distribution, G0/G1 (SW480 cells [4]): 53.6%; Cell cycle distribution, G2/M (SW480 cells [4]): 22.2%; Cell cycle distribution, S Phase (SW480 cells [4]): 24.1%; Cell cycle distribution, Sub G0/G1 (SW480 cells [4]): 0%; viability at 2.5 µM (SW480 cells [5]; 48 h, 2 days after plating): 97.9 ± 1.55%; viability at 40 µM (SW480 cells [5]; 48 h, 2 days after plating): 16.2 ± 2.51%; viability at 2.5 µM (SW480 cells [5]; 96 h, 4 days after plating): 81.2 ± 2.8%; viability at 40 µM (SW480 cells [5]; 96 h, 4 days after plating): 8 ± 1.81%; viability at 2.5 µM (SW480 cells [5]; 144 h, 6 days after plating): 59.5 ± 3.45%; viability at 40 µM (SW480 cells [5]; 144 h, 6 days after plating): 2.04 ± 0.35%; viability at 2.5 µM (SW480 cells [5]; 192 h, 8 days after plating): 42.8 ± 1.3%; viability at 40 µM (SW480 cells [5]; 192 h, 8 days after plating): 0%; Dioc6 High population (live cells with high membrane polarization) (SW480 cells [6]): 84.9%; Dioc6 Low population (cells that lose membrane polarization) (SW480 cells [6]): 0%; PI+ population (membrane damage or dead cells) (SW480 cells [6]): 15%; changes in the mitochondrial membrane potential (SW480 cells [6]): do not induce significant changes; levels of biomarkers (caspase 3, caspase 7, caspase 8, p53) [7]: no significant differences
O=c1[nH]cc(F)c(=O)[nH]1 [Compound 5-FU, 5-fluorouracil, reference compound]	1540 ± 128	174 ± 19.1	544 ± 52.9	173 ± 14.6	–	> 1000	119 ± 2.84	899 ± 60.7	181 ± 18.8	–
O=c1[nH]c(=O)n(Cc2cn(CCCCCCCCCOc3cc(O)c4c(=O)c(-c5ccc(O)cc5)coc4c3)nn2)cc1F [F]	–	–	–	–	–	–	–	–	–	IC50 (SW620 cells [8]): 36.8 ± 0.71 µM
COc1cc(/C=C/C(=O)c2ccc(OCCCCCCCCCCCCn3cc(Cn4cc(F)c(=O)[nH]c4=O)nn3)cc2)ccc1O [Compound 6h, (E)-5-fluoro-1-((1-(12-(4-(3-(4-hydroxy-3-methoxyphenyl)acryloyl)phenoxy)dodecyl)-1H-1,2,3-triazol-4-yl)methyl)pyrimidine-2,4(1H,3H)-dione]	> 100	> 100	> 100	> 100	129 to 135	> 100	> 100	> 100	> 100	–
CC1(C)CCC(C)(C)c2cc(NC(=O)c3ccc(C(=O)OCn4cc(F)c(=O)[nH]c4=O)cc3)ccc21 [B]	–	–	–	–	–	–	–	–	–	IC50 (K562 cell line): 10.6 µM; IC50 (U937 cell line): 8.21 µM; IC50 (HL-60 cell line): 9.87 µM
COc1cc(/C=C/C(=O)CC(=O)/C=C/c2ccc(O)c(OC)c2)ccc1O [Curcumin, curcumin]	84.6 ± 6.6	90.4 ± 1	20.2 ± 2.41	36.3 ± 4.17	–	> 100	28.8 ± 2.33	164 ± 5.88	22.2 ± 2.37	–
